Molecules are shown by their SMILES.

human GluN1/GluN2B NMDA receptors, sequence (Q13224 27-1484, other chains not shown): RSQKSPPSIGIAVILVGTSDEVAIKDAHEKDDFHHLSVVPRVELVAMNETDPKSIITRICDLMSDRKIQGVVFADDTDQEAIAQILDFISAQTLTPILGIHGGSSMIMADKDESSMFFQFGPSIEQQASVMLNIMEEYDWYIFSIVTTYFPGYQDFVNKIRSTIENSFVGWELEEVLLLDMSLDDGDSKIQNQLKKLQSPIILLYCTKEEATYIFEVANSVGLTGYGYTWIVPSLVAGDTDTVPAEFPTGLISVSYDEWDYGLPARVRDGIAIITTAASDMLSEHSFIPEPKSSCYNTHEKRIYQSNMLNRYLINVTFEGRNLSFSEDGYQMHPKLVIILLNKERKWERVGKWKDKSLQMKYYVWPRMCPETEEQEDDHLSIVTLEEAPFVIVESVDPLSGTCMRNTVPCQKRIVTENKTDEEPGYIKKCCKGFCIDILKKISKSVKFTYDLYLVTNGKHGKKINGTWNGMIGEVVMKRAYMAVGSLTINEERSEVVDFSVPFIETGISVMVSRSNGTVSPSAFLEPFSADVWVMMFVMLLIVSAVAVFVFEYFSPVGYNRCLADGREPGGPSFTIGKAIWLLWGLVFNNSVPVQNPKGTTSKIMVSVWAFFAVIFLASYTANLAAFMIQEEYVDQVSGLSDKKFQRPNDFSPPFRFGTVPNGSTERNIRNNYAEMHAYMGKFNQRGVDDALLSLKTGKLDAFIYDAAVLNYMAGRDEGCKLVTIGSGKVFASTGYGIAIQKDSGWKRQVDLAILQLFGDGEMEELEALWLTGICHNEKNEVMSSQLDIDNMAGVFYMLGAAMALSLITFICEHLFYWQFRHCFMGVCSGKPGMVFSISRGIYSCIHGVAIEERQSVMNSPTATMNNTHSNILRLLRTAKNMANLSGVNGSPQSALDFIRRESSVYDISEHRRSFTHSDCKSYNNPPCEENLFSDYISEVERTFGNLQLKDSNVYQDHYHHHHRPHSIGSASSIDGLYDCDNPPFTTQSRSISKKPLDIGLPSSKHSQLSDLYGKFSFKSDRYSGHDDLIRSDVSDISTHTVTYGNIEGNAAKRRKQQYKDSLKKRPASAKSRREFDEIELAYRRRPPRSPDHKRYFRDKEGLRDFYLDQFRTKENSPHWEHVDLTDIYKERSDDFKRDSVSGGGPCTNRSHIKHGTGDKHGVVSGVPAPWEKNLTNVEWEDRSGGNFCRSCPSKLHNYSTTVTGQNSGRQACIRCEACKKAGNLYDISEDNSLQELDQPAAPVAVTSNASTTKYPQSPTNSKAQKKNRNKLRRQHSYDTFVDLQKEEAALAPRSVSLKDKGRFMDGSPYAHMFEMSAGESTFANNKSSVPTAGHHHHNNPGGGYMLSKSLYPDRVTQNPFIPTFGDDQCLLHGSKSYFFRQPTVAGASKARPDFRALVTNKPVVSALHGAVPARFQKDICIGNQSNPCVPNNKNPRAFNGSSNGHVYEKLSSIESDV

The target of the experiment is human GluN1/GluN2B NMDA receptors (Homo sapiens, UniProt Q05586+Q13224). Nature of the experiment: Cell-based calcium flux (FLIPR) assay on cloned human NR1/NR2B ion channels expressed in mammalian cells. The settings on record: standard assay; human GluN1/GluN2B, calcium flux (FLIPR), glutamate ~EC80. The essentials:
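Calcium influx followed by FLIPR fluorescence after 5 min compound exposure and a further 5 min co-agonist challenge: 10 μM glycine with glutamate at ~EC80 (standard) or EC40 (HTS).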
(Calcium flux is commonly read through the fluorescence of an indicator in the cells.)
For orientation: IC50 means the concentration that inhibits the measured activity by half. `FC(F)(F)Oc1cccc(-n2cc(COc3ncccn3)nn2)c1` [Example 341, 2-[[1-[3-(Trifluoromethoxy)phenyl]triazol-4-yl]methoxy]pyrimidine]: the IC50 was found to be 0.538 µM.

Turning to `Cc1cnc(OCc2cn(-c3cccc(OC(F)(F)F)c3)nn2)nc1` [Example 342, 5-Methyl-2-[[1-[3-(trifluoromethoxy)phenyl]triazol-4-yl]methoxy]pyrimidine], the half-inhibitory concentration (IC50) was found to be 0.017 µM.

For the molecule `Cc1cnc(OCc2cn(-c3cccc(OC(F)(F)F)c3)nn2)nc1N` [Example 343, 5-Methyl-2-[[1-[3-(trifluoromethoxy)phenyl]triazol-4-yl]methoxy]pyrimidin-4-amine], the IC50 worked out at 0.04 µM.

As to `CC(=O)c1cnc(OCc2cn(-c3cccc(OC(F)(F)F)c3)nn2)nc1` [Example 344, 1-[2-[[1-[3-(Trifluoromethoxy)phenyl]triazol-4-yl]methoxy]pyrimidin-5-yl]ethanone], the half-inhibitory concentration (IC50) came out at 0.062 µM.

For the molecule `CC(C)(O)c1cnc(OCc2cn(-c3cccc(OC(F)(F)F)c3)nn2)nc1` [Example 345, 2-[2-[[1-[3-(Trifluoromethoxy)phenyl]triazol-4-yl]methoxy]pyrimidin-5-yl]propan-2-ol], the IC50 is 0.284 µM.

As for `COCc1ccnc(OCc2cn(-c3cccc(OC(F)(F)F)c3)nn2)n1` [Example 346, 4-(Methoxymethyl)-2-[[1-[3-(trifluoromethoxy)phenyl]triazol-4-yl]methoxy]pyrimidine], the IC50 was determined as 0.202 µM.

In the case of `Cc1ccnc(OCc2cn(-c3cccc(OC(F)(F)F)c3)nn2)n1` [Example 347, 4-Methyl-2-[[1-[3-(trifluoromethoxy)phenyl]triazol-4-yl]methoxy]pyrimidine], the concentration for half-maximal inhibition (IC50) was 0.137 µM.

On to `Fc1cnc(OCc2cn(-c3cccc(OC(F)(F)F)c3)nn2)nc1` [Example 348, 5-Fluoro-2-[[1-[3-(trifluoromethoxy)phenyl]triazol-4-yl]methoxy]pyrimidine], for which the IC50 stood at 0.447 µM.

As to `COc1cnc(OCc2cn(-c3cccc(OC(F)(F)F)c3)nn2)nc1` [Example 349, 5-Methoxy-2-[[1-[3-(trifluoromethoxy)phenyl]triazol-4-yl]methoxy]pyrimidine], the IC50 worked out at 0.013 µM.

For the molecule `FC(F)(F)Oc1cccc(-n2cc(COc3ncc(Cl)cn3)nn2)c1` [Example 350, 5-Chloro-2-[[1-[3-(trifluoromethoxy)phenyl]triazol-4-yl]methoxy]pyrimidine], the IC50 amounted to 0.05 µM.

With `CCc1cnc(OCc2cn(-c3cccc(OC(F)(F)F)c3)nn2)nc1` [Example 351, 5-Ethyl-2-[[1-[3-(trifluoromethoxy)phenyl]triazol-4-yl]methoxy]pyrimidine], the IC50 is 0.015 µM.

Consider `CNc1ccnc(OCc2cn(-c3cccc(OC(F)(F)F)c3)nn2)n1` [Example 352, N-Methyl-2-[[1-[3-(trifluoromethoxy)phenyl]triazol-4-yl]methoxy]pyrimidin-4-amine], for which the IC50 was found to be 0.068 µM.

As for `Nc1ccnc(OCc2cn(-c3cccc(OC(F)(F)F)c3)nn2)n1` [Example 353, 2-[[1-[3-(Trifluoromethoxy)phenyl]triazol-4-yl]methoxy]pyrimidin-4-amine], the concentration for half-maximal inhibition (IC50) was 0.525 µM.

Turning to `Cc1cnc(OCc2cn(-c3ccc4c(c3)OC(F)(F)O4)nn2)nc1` [Example 354, 2-[[1-(2,2-Difluoro-1,3-benzodioxol-5-yl)triazol-4-yl]methoxy]-5-methyl-pyrimidine], the IC50 came to 0.073 µM.

Turning to `FC1(F)Oc2ccc(-n3cc(COc4ncccn4)nn3)cc2O1` [Example 355, 2-[[1-(2,2-Difluoro-1,3-benzodioxol-5-yl)triazol-4-yl]methoxy]pyrimidine], the half-maximal inhibitory concentration (IC50) was found to be 0.238 µM.

On to `FC1(F)Oc2ccc(-n3cc(COc4ncc(Cl)cn4)nn3)cc2O1` [Example 356, 5-Chloro-2-[[1-(2,2-difluoro-1,3-benzodioxol-5-yl)triazol-4-yl]methoxy]pyrimidine], for which the half-inhibitory concentration (IC50) is 0.185 µM.

For the molecule `Cc1nc(OCc2cn(-c3ccc4c(c3)OC(F)(F)O4)nn2)ncc1F` [Example 357, 2-[[1-(2,2-Difluoro-1,3-benzodioxol-5-yl)triazol-4-yl]methoxy]-5-fluoro-4-methyl-pyrimidine], the concentration for half-maximal inhibition (IC50) turned out to be 0.35 µM.

Consider `Fc1cnc(OCc2cn(-c3ccc4c(c3)OC(F)(F)O4)nn2)nc1` [Example 358, 2-[[1-(2,2-Difluoro-1,3-benzodioxol-5-yl)triazol-4-yl]methoxy]-5-fluoro-pyrimidine], for which the IC50 was 0.726 µM.

On to `Cc1cnc(OCc2cn(-c3ccc4c(c3)OC(F)(F)O4)nn2)nc1C` [Example 359, 2-[[1-(2,2-Difluoro-1,3-benzodioxol-5-yl)triazol-4-yl]methoxy]-4,5-dimethyl-pyrimidine], for which the IC50 was found to be 0.009 µM.

Regarding `Cc1cc(C)cc(-n2cc(COc3ncccn3)nn2)c1` [Example 360, 2-[[1-(3,5-Dimethylphenyl)triazol-4-yl]methoxy]pyrimidine], the 50% inhibitory concentration (IC50) is 0.791 µM.

Turning to `Cc1cc(C)cc(-n2cc(COc3ncc(F)cn3)nn2)c1` [Example 361, 2-[[1-(3,5-Dimethylphenyl)triazol-4-yl]methoxy]-5-fluoro-pyrimidine], the half-inhibitory concentration (IC50) turned out to be 0.587 µM.

`COc1cnc(OCc2cn(-c3cc(C)cc(C)c3)nn2)nc1` [Example 362, 2-[[1-(3,5-Dimethylphenyl)triazol-4-yl]methoxy]-5-methoxy-pyrimidine]: the half-inhibitory concentration (IC50) worked out at 0.032 µM.

`Cc1cc(C)cc(-n2cc(COc3ncc(Cl)cn3)nn2)c1` [Example 363, 5-Chloro-2-[[1-(3,5-dimethylphenyl)triazol-4-yl]methoxy]pyrimidine]: the IC50 came to 0.118 µM.

Take `Cc1cnc(OCc2cn(-c3cc(C)cc(C)c3)nn2)nc1` [Example 364, 2-[[1-(3,5-Dimethylphenyl)triazol-4-yl]methoxy]-5-methyl-pyrimidine]: the IC50 came to 0.027 µM.

Consider `CCc1cnc(OCc2cn(-c3cc(C)cc(C)c3)nn2)nc1` [Example 365, 2-[[1-(3,5-Dimethylphenyl)triazol-4-yl]methoxy]-5-ethyl-pyrimidine], for which the IC50 was 0.022 µM.

For the molecule `Cc1cnc(OCc2cn(-c3ccc4c(c3)CCC4)nn2)nc1` [Example 366, 2-[(1-Indan-5-yltriazol-4-yl)methoxy]-5-methyl-pyrimidine], the concentration for half-maximal inhibition (IC50) stood at 0.02 µM.

As for `Clc1cnc(OCc2cn(-c3ccc4c(c3)CCC4)nn2)nc1` [Example 367, 5-Chloro-2-[(1-indan-5-yltriazol-4-yl)methoxy]pyrimidine], the 50% inhibitory concentration (IC50) was determined as 0.053 µM.

Take `COCc1ccnc(OCc2cn(-c3ccc4c(c3)CCC4)nn2)n1` [Example 368, 2-[(1-Indan-5-yltriazol-4-yl)methoxy]-4-(methoxymethyl)pyrimidine]: the IC50 worked out at 0.114 µM.

For the molecule `CC(C)(O)c1cnc(OCc2cn(-c3ccc4c(c3)CCC4)nn2)nc1` [Example 369, 2-[2-[(1-Indan-5-yltriazol-4-yl)methoxy]pyrimidin-5-yl]propan-2-ol], the half-inhibitory concentration (IC50) is 0.175 µM.

`FC(F)c1ccnc(OCc2cn(-c3ccc4c(c3)CCC4)nn2)n1` [Example 370, 4-(Difluoromethyl)-2-[(1-indan-5-yltriazol-4-yl)methoxy]pyrimidine]: the IC50 worked out at 0.397 µM.

For the molecule `Cc1nc(OCc2cn(-c3ccc4c(c3)CCC4)nn2)ncc1Cl` [Example 371, 5-Chloro-2-[(1-indan-5-yltriazol-4-yl)methoxy]-4-methyl-pyrimidine], the IC50 was 0.039 µM.

With `Cc1cnc(OCc2cn(-c3ccc(Cl)c(OC(F)F)c3)nn2)nc1C` [Example 372, 2-[[1-[4-Chloro-3-(difluoromethoxy)phenyl]triazol-4-yl]methoxy]-4,5-dimethyl-pyrimidine], the IC50 was 0.008 µM.

Take `CC(C)c1cnc(OCc2cn(-c3ccc(Cl)c(OC(F)F)c3)nn2)nc1` [Example 373, 2-[[1-[4-Chloro-3-(difluoromethoxy)phenyl]triazol-4-yl]methoxy]-5-isopropyl-pyrimidine]: the concentration for half-maximal inhibition (IC50) turned out to be 0.01 µM.

For `C[C@@H](Oc1ncccn1)c1cn(-c2ccc(Cl)c(OC(F)F)c2)nn1` [Example 374, 2-[(1R)-1-[1-[4-Chloro-3-(difluoromethoxy)phenyl]triazol-4-yl]ethoxy]pyrimidine], the concentration for half-maximal inhibition (IC50) stood at 0.011 µM.

`C[C@@H](Oc1ncc(Cl)cn1)c1cn(-c2ccc(Cl)c(OC(F)F)c2)nn1` [Example 375, 5-Chloro-2-[(1R)-1-[1-[4-chloro-3-(difluoromethoxy)phenyl]triazol-4-yl]ethoxy]pyrimidine]: the half-inhibitory concentration (IC50) is 0.01 µM.

On to `Cc1cnc(O[C@H](C)c2cn(-c3ccc(Cl)c(OC(F)F)c3)nn2)nc1` [Example 376, 2-[(1R)-1-[1-[4-Chloro-3-(difluoromethoxy)phenyl]triazol-4-yl]ethoxy]-5-methyl-pyrimidine], for which the IC50 was found to be 0.011 µM.

Turning to `COc1cnc(O[C@H](C)c2cn(-c3ccc(Cl)c(OC(F)F)c3)nn2)nc1` [Example 377, 2-[(1R)-1-[1-[4-Chloro-3-(difluoromethoxy)phenyl]triazol-4-yl]ethoxy]-5-methoxy-pyrimidine], the IC50 is 0.01 µM.

As for `C[C@H](Oc1ncccn1)c1cn(-c2ccc(Cl)c(OC(F)F)c2)nn1` [Example 378, 2-[(1S)-1-[1-[4-Chloro-3-(difluoromethoxy)phenyl]triazol-4-yl]ethoxy]pyrimidine], the half-inhibitory concentration (IC50) is 2.3 µM.

On to `C[C@H](Oc1ncc(Cl)cn1)c1cn(-c2ccc(Cl)c(OC(F)F)c2)nn1` [Example 379, 5-Chloro-2-[(1S)-1-[1-[4-chloro-3-(difluoromethoxy)phenyl]triazol-4-yl]ethoxy]pyrimidine], for which the half-inhibitory concentration (IC50) came out at 0.575 µM.

For the molecule `Cc1cnc(O[C@@H](C)c2cn(-c3ccc(Cl)c(OC(F)F)c3)nn2)nc1` [Example 380, 2-[(1S)-1-[1-[4-Chloro-3-(difluoromethoxy)phenyl]triazol-4-yl]ethoxy]-5-methyl-pyrimidine], the half-maximal inhibitory concentration (IC50) came out at 0.237 µM.

Consider `COc1cnc(O[C@@H](C)c2cn(-c3ccc(Cl)c(OC(F)F)c3)nn2)nc1` [Example 381, 2-[(1S)-1-[1-[4-Chloro-3-(difluoromethoxy)phenyl]triazol-4-yl]ethoxy]-5-methoxy-pyrimidine], for which the IC50 was found to be 0.196 µM.

Source of the values: patent US10233173B2, “Substituted 1,2,3-triazoles as NR2B-selective NMDA modulators” (JANSSEN PHARMACEUTICA NV, priority 2016, dated 2019).
